How the values were obtained:
α-synuclein = α-synuclein aggregation in human embryonic stem cells overexpressing α-synuclein with an AAV vector; type: cell-based; conditions: FIG. 9
[1] = molecular target: T1, nanoLuc TRAP1 in SHSY5Y cells (Homo sapiens, UniProt Q12931); test: NanoBRET in-cell target engagement assay; type: cell-based
T1 construct: expressed in transfected cells; host or cells: SHSY5Y cells, transient transfection with FuGENE HD
T1 sequence (Q12931 60-704): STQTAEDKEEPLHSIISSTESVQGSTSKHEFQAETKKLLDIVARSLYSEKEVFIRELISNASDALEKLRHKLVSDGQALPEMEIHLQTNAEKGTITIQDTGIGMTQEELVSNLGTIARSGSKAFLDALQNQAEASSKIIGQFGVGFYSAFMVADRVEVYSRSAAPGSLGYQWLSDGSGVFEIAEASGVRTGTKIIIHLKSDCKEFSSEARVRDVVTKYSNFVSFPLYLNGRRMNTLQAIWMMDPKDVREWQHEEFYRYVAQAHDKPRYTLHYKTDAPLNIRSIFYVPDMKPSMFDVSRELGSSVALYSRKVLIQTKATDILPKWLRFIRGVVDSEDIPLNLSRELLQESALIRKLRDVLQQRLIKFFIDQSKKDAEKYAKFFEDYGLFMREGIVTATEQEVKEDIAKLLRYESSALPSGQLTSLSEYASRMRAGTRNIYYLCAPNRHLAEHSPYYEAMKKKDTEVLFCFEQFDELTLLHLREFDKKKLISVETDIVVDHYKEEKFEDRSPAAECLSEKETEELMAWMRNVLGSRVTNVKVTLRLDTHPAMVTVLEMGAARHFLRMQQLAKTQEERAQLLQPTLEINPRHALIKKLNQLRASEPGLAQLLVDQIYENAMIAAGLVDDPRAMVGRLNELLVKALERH
Protocol: In-cell target engagement assays were performed as described in Robers M. B. et al. (2019) Quantitative, Real-Time Measurements of Intracellular Target Engagement Using Energy Transfer. In: Ziegler S., Waldmann H. (eds) Systems Chemical Biology. Methods in Molecular Biology, vol 1888. Humana Press, New York, N.Y.; Machleidt et al., ACS Chem. Biol. 2015, 10, 8, 1797-1804; or Vasta et al., Cell Chemical Biology 25, 206-214, Feb. 15, 2018; or as described herein.
Below is a protocol for transient transfection of SHSY5Y cells with NanoLuc® fusions. • 1. Cultivate SHSY5Y cells appropriately prior to assay in MEM w NEAA supplemented with 10% FBS. • 2. Remove medium from cell flask via aspiration, trypsinize, and allow cells to dissociate from the flask. • 3. Neutralize trypsin using growth medium and pellet cells via centrifugation at 200 g for 5 minutes. • 4. Aspirate medium and re-suspend cells into a single cell suspension using complete cell culture medium. • 5. Adjust the cell density to 300K/mL in cell culture medium in a sterile, conical tube. • 6. Prepare lipid:DNA complexes as follows (this covers two assay plates, adjust numbers for more plates) • a. Prepare a 10 μg/mL solution of DNA in Opti-MEM without serum. This solution should contain the following ratios of carrier DNA and DNA encoding NanoLuc® fusion. • i. 5.0 μg/mL of Transfection Carrier DNA (pGEM) • ii. […]

displacement of fluorescent nanoBRET tracer (probe-385) from nanoLuc TRAP1 ([1]; SHSY5Y cells, tracer titration, compound 20 PM, FIG. 13): displacement of the tracer | displacement of nanoBRET tracer (probe-385) from nanoLuc TRAP1, concentration response ([1]; live SHSY5Y cells, tracer 1 μM, FIG. 14): displacing the nanoBRET tracer molecule
Structure (SMILES): COc1ncc(NC(=O)c2csc(-c3ccccc3)n2)cc1S(=O)(=O)Nc1c(C)cccc1C [compound 1178]
α-synuclein aggregation (α-synuclein): reduction in α-synuclein aggregation

Source: patent publication US20230159509A1 (Amathus Therapeutics, Inc., priority 2020, published 2023)
